From patent US20220204577A1, “Synthetic Peptides With Affinity for the Interleukin-10 Receptor, Pharmaceutical Composition and Use Thereof as Immunomodulators for Treating Autoimmune, Inflammatory or Allergic Diseases” (Universidade Federal de Uberlândia, priority 2019, published 2022)
Positions of bridges follow the written chain, without caps; N, C: chain ends. No end group written: not given here.

How the values were obtained:
Type in all cases: cell-based
NFκB [1] = assay: NFkB expression in Jurkart-Dual reporter cells, peptide pre-treatment then TNF-α; details: peptide 1 hour, then TNF-α 200 ng/ml; all concentrations tested; 12, 24 and 48 hours
Protocol: The assay was then performed using TNF-α as the activating molecule not only in the control, but after a pre-treatment with the synthesized peptides Pep 1, Pep 2, Pep 3, and Pep 4 at various concentrations. […] In the assays shown in FIGS. 3 A, B, and C, NFkB expression analysis was performed in Jurkart-Dual reporter cells. Cells were treated with peptides for 1 hour and TNF-α (200 ng/ml) was added. Luciferase was measured after 12 hours of treatment (FIG. 3A), 24 hours of treatment (FIG. 3B), and 48 hours of treatment (FIG. 3C).

TLR4 signaling pathway = TLR4 signaling pathway (SEAP) in HEK cells, peptide pre-treatment then LPS; details: peptide then LPS; 0.005 μM; 12 hours
Protocol: HEK cells were used to investigate the ability of the peptides to reduce activation of the TLR4 signaling pathway after 12 hours of treatment.
In the assay shown in FIG. 7A, the cells were treated with peptides for 1 hour, then LPS (100 ng/ml) was added. SEAP production was measured after 12 hours of treatment. In the assay shown in FIG. 7B, the cells were treated with LPS (100 ng/ml) for 1 hour, then the peptides were added. SEAP production was measured after 12 hours of treatment. LPS (100 ng/mL) was used as positive control and IL-10 (0.4 ng/mL) as negative control. * P<0.05; ** P<0.005; *** P<0.0005.

[2] = tested on: Dendritic cells from mice bone marrow; assay: Co-stimulatory molecules on bone marrow dendritic cells; details: CD11c+ dendritic cells, 24 hours
Protocol: Dendritic cells from mice bone marrow were isolated to analyze the effect of synthesized peptides Pep 1, Pep 2, Pep 3, and Pep 4 at two concentrations, 1 μM, and 10 μM, on reducing cell activation. […] In the assays, CD11c+CD86 cells (FIG. 8A) and CD11c+CD40+ cells (FIG. 8B) were used after 24 hours of treatment. LPS (100 ng/mL) was used as a positive control. * P<0.05; ** P<0.005.

NFκB [3] = assay: NFkB expression in Jurkart-Dual reporter cells, TNF-α pre-treatment then peptides; details: for NFκB signaling: TNF-α then peptide
Protocol: Then another assay was performed in which the cells were pretreated with TNF-α and the peptides were added later. […] In the assays shown in FIGS. 4 A, B, and C the analysis of NFkB expression was performed in Jurkart-Dual reporter cells. Cells were treated with TNF-α (200 ng/ml) for 1 hour and the peptides were added. Luciferase was measured after 12 hours of treatment (FIG. 4A), 24 hours of treatment (FIG. 4B), and 48 hours of treatment (FIG. 4C). TNF-α (200 ng/mL) was used as a positive control and rIL-10 (Recombinant Interleukin-10) (0.4 ng/mL) as a negative control. * P<0.05; ** P<0.005; *** P<0.0005.

cell line J774 = assay: Cytokines production after treatment of cell line J774; set-up: levels of MCP-1: dose or concentration left out as unconfirmed
Protocol: After 24 hours of treatment, the produced amounts of IL-6, MCP-1, and TNF-α were measured. […] In contrast, when cells were treated with a composition of Pep 1 followed by incubation with LPS (1 mg/ml) for 24 hours to induce an inflammatory response, the peptide was able to decrease the production of IL-6, MCP-1, and TNF-α.
Each decrease was significant compared to cells treated with LPS alone (positive control). * P<0.05; ** P<0.005; *** P<0.0005

[4] = tested on: NFκB, IFN, or TLR4 signaling pathways; assay: Reporter cell lines treated with peptides alone (no activating molecule); details: various concentrations, 12, 24 and 48 hours
Protocol: To investigate the ability of the peptides to interfere with the NFkB, IFN, and TLR4 pathways, reporter cell lines were used. To analyze whether the isolated peptides (without activation molecules) could induce any type of activation, the isolated peptides were tested in the cell lines during 12, 24, and 48 hours of treatment. […] As an example, FIGS. 2A, 2B, and 2C show an analysis of NFkB expression after stimulation with the synthesized peptides described in this report. The cells were treated with the synthesized peptides Pep 1, Pep 2, Pep 3, and Pep 4 at various concentrations for 12, 24, and 48 hours, without activating molecules. Luciferase was then measured after 12 hours of treatment (FIG. 2A), 24 hours of treatment (FIG. 2B), and 48 hours of treatment (FIG. 2C). […] TNF-α (200 ng/mL) was used as a positive control.

IFN signaling pathway = IFN signaling pathway (SEAP) in Jurkart-Dual reporter cells, peptide pre-treatment then IFN-α; details: peptide 1 hour, then IFN-α (104 EU/ml); 10 μM; 12 hours
Protocol: Therefore, we cannot confirm whether they were able to affect the activation pathway (FIGS. 6A, B, and C) in the same or better way than the negative control (rIL-10). In the assays shown in FIGS. 5 (A, B, and C) and 6 (A, B, and C), IFN expression was analyzed in Jurkart-Dual reporter cells. In the assays shown in FIGS. 5 A, B, and C, cells were treated with peptides for 1 hour followed by the addition of IFN-α (104 EU/ml). Secreted Embryonic Alkaline Phosphatase (SEAP) production was measured after 12 hours of treatment (FIG. 5A), 24 hours of treatment (FIG. 5B), and 48 hours of treatment (FIG. 5C). In the assays shown in FIGS. 6 A, B, and C, cells were treated with IFN-α (104 EU/ml) for 1 hour, and then peptides were added. SEAP production was measured after (D) 12 hours of treatment (E) 24 hours of treatment, and (F) 48 hours of treatment. IFN-α (104 EU/mL) was used as a positive control and rIL-10 (0.4 ng/mL) as a negative control. * P<0.05.

Pep 1: synthetic peptide with affinity to the Interleukin-10 receptor, SEQ ID No 01, with disulfide bridges (HACSAVIKSSCGGGS; disulfide 3-11 (inferred))
NFκB activation (NFκB [1]): able to decrease NFκB activation
TLR4 pathway activation (TLR4 signaling pathway): significantly reduced pathway activation
expression of CD86+ ([2]; 1 μM): decreased the expression of CD86+
expression of CD86+ ([2]; 10 μM): decreased the expression of CD86+
NFκB signaling (NFκB [3]; 0.0001 μM, 24 hours): less activation of the analyzed signaling pathway
NFκB signaling (NFκB [3]; 0.001 μM, 12 hours): decreased the activation of the analyzed pathway
NFκB signaling (NFκB [3]; 0.001 μM, 24 hours): less activation of the analyzed signaling pathway
NFκB signaling (NFκB [3]; 0.001 μM, 48 hours): reducing NFκB signaling
NFκB signaling (NFκB [3]; 0.005 μM, 24 hours): less activation of the analyzed signaling pathway
NFκB signaling (NFκB [3]; 0.05 μM, 12 hours): decreased the activation of the analyzed pathway
NFκB signaling (NFκB [3]; 0.1 μM, 12 hours): decreased the activation of the analyzed pathway
NFκB signaling (NFκB [3]; 0.1 μM, 24 hours): less activation of the analyzed signaling pathway
NFκB signaling (NFκB [3]; 0.5 μM, 12 hours): decreased the activation of the analyzed pathway
NFκB signaling (NFκB [3]; 1 μM, 12 hours): decreased the activation of the analyzed pathway
NFκB signaling (NFκB [3]; 1 μM, 24 hours): less activation of the analyzed signaling pathway
NFκB signaling (NFκB [3]; 5 μM, 12 hours): decreased the activation of the analyzed pathway
NFκB signaling (NFκB [3]; 10 μM, 12 hours): decreased the activation of the analyzed pathway
NFκB signaling (NFκB [3]; 10 μM, 24 hours): less activation of the analyzed signaling pathway
NFκB signaling (NFκB [3]; 100 μM, 24 hours): less activation of the analyzed signaling pathway
NFκB activation (NFκB [3]; cells pretreated with TNF-α, all concentrations tested, 12 and 24 hours): decreased NFκB activation
IL-10, IFN-γ, or IL12p70 production (cell line J774; 24 hours of treatment (data not shown)): No interference
levels of IL-6 (cell line J774; peptide then LPS 24 hours, 1 μM and 10 μM printed beside IL-6, versus LPS alone): significantly reduced
levels of TNF-α (cell line J774; peptide then LPS 24 hours, 1 μM, 10 μM and 100 μM, versus LPS alone): significantly reduced
levels of MCP-1 (cell line J774; peptide then LPS 24 hours, versus LPS alone): significantly reduced
cytokine response to peptide alone (cell line J774; without LPS stimulation (data not shown)): unable to elicit any response
NFkB expression (luciferase) [4]: unable to elicit any response
activation of the IFN signaling pathway (IFN signaling pathway): activation of the pathway was reduced
